According to PMC8826081, “Three-Carbon Linked Dihydroartemisinin-Isatin Hybrids: Design, Synthesis and Their Antiproliferative Anticancer Activity” (Frontiers in Pharmacology, 2022):

Tests used:
[1] = Metabolic stability in mouse liver microsomes; type: in vitro ADME; conditions: in vitro stability
[2] = Metabolic stability in human liver microsomes; type: in vitro ADME; conditions: in vitro stability
[3] = Pharmacokinetic properties in CD-1 mice; type: in vivo; conditions: mouse, plasma; for bioavailability: 30 mg/kg, read-out: F (bioavailability); for AUC / Cmax / clearance / half-life / Tmax: single intravenous dose of 30 mg/kg; for Tmax: read-out: tmax (peak time) (converted)
Procedure: CD-1 mice model was administered with single intravenous […]) dose of 30 mg/kg to test the pharmacokinetic properties of hybrid 6a, e.
CD-1 mice mice (20-25 g) were used in the pharmacokinetic study, and each treatment group had 3 mice which were dosed with […] suspension at 30 mg/kg by single intravenous (iv) administration. Compounds were suspended in 0.5% CMC for iv, and blood was collected from the jugular vein of each mouse at the following time points: 0.25, 0.5, 1, 2, 4, 6, 8 and 24 h after […] administration. Total area under the concentration time curve (AUC), the elimination half-time (t1/2), the peak concentration (Cmax) and the time to reach peak concentration (Tmax) of samples were determined directly from the experimental data using WinNonlin V6.2.1.

[4] = system: A549, A549/DOX and A549/DDP lung cancer cell lines; experiment: MTT antiproliferative activity, summarised over the three lung cancer cell lines; type: cell-based; conditions: for IC50: MTT assay, span of values over the three lung cancer cell lines, read-out: IC50 (range over A549, A549/DOX and A549/DDP); for times superior to cisplatin and doxorubicin: against multidrug-resistant A549/DOX and A549/DDP; for RI (drug resistance index: IC50(MDR A549)/IC50(A549)): span over RI1 and RI2
Source text: (§1) 3-(4,5-dimethylthiazol-2-yl)-2,5-diphenyltetrazolium bromide (MTT) assay was used to determined the antiproliferative activity of dihydroartemisinin-isatin hybrids 5a-e and 6a-j with three-carbon linker against A549, multidrug-resistant A549/DOX and A549/DDP lung cancer cell lines as well as cytotoxicity towards normal lung epithelial cell line (BEAS-2B). The inhibitory effects were expressed in terms of half maximal inhibitory concentration (IC50) values.
(§2) A549, A549/DOX, and A549/DDP lung cancer cells (2×10^3) were plated in each well of a 96-well plate and were allowed to adhere and spread for 24 h. The […] were added to a final concentration of 100 µM, and the cells were cultured for 24 h at 37 °C. 3-(4,5-dimethyl-2-thiazolyl)-2,5-diphenyltetrazolium bromide (MTT) solution (10 µL) was added to each well, and the cultures were incubated for an additional 4 h. A further 100 µL of […] was added and incubation continued overnight. The absorbance at 540 nm was determined in each well with a 96-well plate reader. The growth of the treated cells was compared with that of untreated cells.

[5] = system: BEAS-2B normal lung epithelial cell line; experiment: MTT cytotoxicity towards normal lung epithelial cells; conditions: IC50(BEAS-2B)/IC50(A549)
Procedure: as §1
(§3) The compounds were dissolved in DMSO with concentrations from 1024 to 1 μg/mL. The NIH/3T3 cells were maintained in culture medium at 37 °C under 5% CO2 atmosphere. Cells were seeded in 96-well plates (1×10^4 cell per well) and allowed to recover for 24 h. After 72 h of exposure, cells were harvested and cell viability was assessed by MTT assay. The CC50 values were calculated by Bliss analysis.

in vitro = conditions: human
Procedure: as §1, §3

[6] = system: A549/DDP (cisplatin-resistant A549 cells); experiment: MTT antiproliferative activity against cisplatin-resistant A549; type: cell-based; conditions: for IC50: Homo sapiens, MTT assay, cisplatin-resistant A549 cells
Source text: as §1, §2

[7] = system: A549/DOX (doxorubicin-resistant A549 cells); experiment: MTT antiproliferative activity against doxorubicin-resistant A549; type: cell-based; conditions: for IC50: Homo sapiens, MTT assay, doxorubicin-resistant A549 cells
Source text: as §1, §2

A549 lung cancer cells = experiment: MTT antiproliferative activity against A549; type: cell-based; conditions: Homo sapiens; MTT assay, drug-sensitive A549
Source text: as §1, §2

Liver microsomes Mouse [1] [%] | Liver microsomes Human [2] [%] | bioavailability [3] [%] | AUC [3] [ng·h/mL] | Cmax [3] [µM] | clearance [3] [mL/min/kg] | half-life [3] [h] | Tmax [3] [h] | IC50 [4] [µM] | RI (drug resistance index: IC50(MDR A549)/IC50(A549)) [4] | IC50 (in vitro) [µM] | IC50 [6] [µM] | RI2 (Resistance index: IC50(A549/DDP)/IC50(A549)) ([6]; IC50(A549/DDP)/IC50(A549)) | IC50 [7] [µM] | RI1 (Resistance index: IC50(A549/DOX)/IC50(A549)) [7] | IC50 (A549 lung cancer cells) [µM] | SMILES | times superior to cisplatin and doxorubicin [4] | SI (Selectivity index: IC50(BEAS-2B)/IC50(A549)) [5]
54 | 51 | 30.8 | 1670 | 10.7 | 44.8 | 4.7 | 0.2 | 5.72 to 9.84 | 1.03–1.66 | > 100 | 6.17 | 1.03 | 8.93 | 1.49 | 5.99 | C[C@@H]1CC[C@H]2[C@@H](C)C(OCCCN3C(=O)C(=NNC(N)=S)c4cc(F)ccc43)O[C@@H]3O[C@@]4(C)CC[C@@H]1[C@]32OO4 (stereo partly drawn) [6e, 2-(5-fluoro-2-oxo-1-(3-(((3R,5aS,6R,8aS,9R,12R,12aR)-3,6,9-trimethyldecahydro-12H-3,12-epoxy[1,2]dioxepino[4,3-i]isochromen-10-yl)oxy)propyl)indolin-3-ylidene)hydrazine-1-carbothioamide] | 1.5–10.8 times | >16.6
70 | 62 | 39.7 | 2350 | 18.9 | 62.3 | 3.1 | 0.267 | 5.72 to 9.84 | 1.03–1.66 | > 100 | 9.84 |  | 7.35 | 1.28 | 5.72 | C[C@@H]1CC[C@H]2[C@@H](C)C(OCCCN3C(=O)C(=NO)c4ccccc43)O[C@@H]3O[C@@]4(C)CC[C@@H]1[C@]32OO4 (stereo partly drawn) [6a, 3-(hydroxyimino)-1-(3-(((3R,5aS,6R,8aS,9R,12R,12aR)-3,6,9-trimethyldecahydro-12H-3,12-epoxy[1,2]dioxepino[4,3-i]isochromen-10-yl)oxy)propyl)indolin-2-one] | 1.5–10.8 times | >17.4
